Data as given in patent US20250136544A1, “8-((4-HYDROXY-3-METHYLPHENYL)DIAZENYL)NAPHTHALENE-1,3-DISULFONIC ACID AS AN ANTIMICROBIAL COMPOUND” (KING FAISAL UNIVERSITY, priority 2023, published 2025).

Assay: DPPH radical scavenging antioxidant test
Format: biochemical
Settings: 517 nm; for Inhibition (radical scavenging inhibition): 0.2 mL DPPH (0.75 mM), compound 3 μM in ethanol, 30 minutes in the dark
Description: The antioxidant properties of the 8-((4-hydroxyphenyl)diazenyl)naphthalene-1,3-disulfonic acid compound were studied by adding 0.2 mL DPPH (0.75 mM)) to 8-((4-hydroxyphenyl)diazenyl)naphthalene-1,3-disulfonic acid (III) (3 μM) in ethanol. After 30 minutes of incubation in the dark, the absorbance was read against a blank at 517 nm. Ascorbic acid (vitamin C) was used as standard antioxidants (positive control). A blank sample was prepared by 0.2 ml of DPPH in 3 mL ethanol. A negative control sample was run using ethanol instead of the sample. The radical scavenging inhibition was calculated using the following equation: […]
The antioxidant activity for the synthesized compound is listed in Table 1, using Vitamin C as a reference.

With O=S(=O)(O)c1cc(S(=O)(=O)O)c2c(/N=N/c3ccc(O)cc3)cccc2c1 [Product III, 8-((4-hydroxyphenyl)diazenyl)naphthalene-1,3-disulfonic acid] the “Inhibition (radical scavenging inhibition)” value was 52% and the “antioxidant potential in DPPH test compared to vitamin C (in words)” value (DPPH in vitro test, vitamin C as positive control) was “high potential as an antioxidant compared to vitamin C”.
In the case of O=C1O[C@H]([C@@H](O)CO)C(O)=C1O [vit c, Ascorbic acid, reference compound], the “Inhibition (radical scavenging inhibition)” value is reported as 74%.
